Consider three compounds from paper PMC6272684, “Synthesis, Antiproliferative and Antifungal Activities of 1,2,3-Triazole-Substituted Carnosic Acid and Carnosol Derivatives” (Molecules, 2015).

The subject of one test is C. neoformans ATCC 32264. Description: Antifungal broth microdilution (CLSI M27-A3), growth inhibition. It counts as cell-based, Cryptococcus neoformans. As to conditions: for MIC50 (minimum concentration to inhibit 50% of fungal growth), C. neoformans: C. neoformans ATCC 32264. As to the method: (§1) The antifungal properties of compounds 1–24 against two clinical important fungal species, C. albicans ATCC 10231 and C. neoformans ATCC 32264 were investigated. Results were expressed as the percentages of inhibition of each fungus in the range 250–3.9 μg∙mL^−1 by using the standardized microbroth dilution method M-27A3 of Clinical and Laboratory Standards Institute which assures reliable and reproducible results.
(§2) For the antifungal evaluation, standardized strains from the American Type Culture Collection (ATCC), Rockville, MD, USA, were used. The microorganisms included yeasts (Candida albicans ATCC 10231 and Cryptococcus neoformans ATCC 32264). Strains were grown on Sabouraud-chloramphenicol agar slants for 48 h at 30 °C, maintained on slopes of Sabouraud-dextrose agar (SDA, Oxoid), and subcultured every 15 days to prevent pleomorphic transformations. Inocula of cell or spore suspensions were obtained according to reported procedures and adjusted to 1–5 × 10^3 cells/spores with colony forming units (CFU)/mL [29].
(§3) Broth microdilution techniques were performed in 96-well microplates according to the Clinical and Laboratory Standards Institute Reference Method for Broth Dilution Antifungal Susceptibility Testing of Yeasts, Approved Standard M27-A3 [29]. For the assay, compound test wells (CTWs) were prepared with stock solutions of each compound in DMSO (maximum concentration ≤1%), diluted with RPMI-1640, to final concentrations of 250–3.9 μg∙mL^−1. An inoculum suspension (100 μL) was added to each well (final volume in the well = 200 μL). A growth control well (GCW) (containing medium, inoculum, and the same amount of DMSO used in a CTW, but compound-free) and a sterility control well (SCW) (sample, medium, and sterile water instead of inoculum) were included for each fungus tested. Microtiter trays were incubated in a moist, dark chamber at 30 °C for 48 h for both yeasts. Microplates were read in a VERSA Max microplate reader (Molecular Devices, Sunnyvale, CA, USA). Amphotericin B (Sigma-Aldrich) was used as positive control. Tests were performed in triplicate. Reduction of growth for each compound concentration was calculated as follows: % of inhibition = 100 − (OD 405 CTW − OD 405 SCW)/(OD 405 GCW − OD 405 SCW). The means ± SEM were the results of triplicate tests. Three endpoints were defined from the assay explained above and the dose-response curves. Minimum Inhibitory concentration (MIC) resulting in total fungal growth inhibition was named MIC100 while MIC50 was defined as the minimum concentration that inhibits 50% of the fungal growth.
For orientation: Dilution methods test growth across graded concentrations, often in twofold steps.

The next test has as its system C. albicans ATCC 10231. Described as above. It counts as cell-based, Candida albicans. Particulars: for MIC50 (minimum concentration to inhibit 50% of fungal growth), C. albicans: C. albicans ATCC 10231. As to the method:
as §1, §2, §3

`COC(=O)C12CCCC(C)(C)C1CCc1cc(C(C)C)c(OC(=O)CCCc3cn(CSc4ccccc4)nn3)c(OC(=O)CCCc3cn(CSc4ccccc4)nn3)c12` (stereo not drawn) [Compound 10, Methyl(11,12-O-(4-(((1-phenylthio)methyl)-1H-1,2,3-triazol-4-yl)-butanoyloxy)-abieta-8,11,13-triene)-20-oate]: the “Inhibition percentage against C. neoformans ATCC 32264” value with C. neoformans ATCC 32264 (3.9 μg∙mL^−1, 48 h) is listed as 0.0%; in the test on C. neoformans ATCC 32264 (7.8 μg∙mL^−1, 48 h) it was 11.3 ± 0.5%; in the test with C. neoformans ATCC 32264 (15.6 μg∙mL^−1, 48 h) it was 14.4 ± 0.8%; with C. neoformans ATCC 32264 (31.2 μg∙mL^−1, 48 h), 18.6 ± 1.5%; in the test on C. neoformans ATCC 32264 (62.5 μg∙mL^−1, 48 h) it was 19.1 ± 1.8%; in the test on C. neoformans ATCC 32264 (125 μg∙mL^−1, 48 h), 42.9 ± 2.0%. Further, the “Inhibition percentage against C. neoformans ATCC 32264” value with C. neoformans ATCC 32264 (250 μg∙mL^−1, 48 h) is 63.9 ± 2.9%. The “MIC50 (minimum concentration to inhibit 50% of fungal growth), C. neoformans” value against C. neoformans ATCC 32264 stood at 250 µg/mL. Further, the “Inhibition percentage against C. albicans ATCC 10231” value was 1.3 ± 1.3% with C. albicans ATCC 10231 (3.9 μg∙mL^−1, 48 h); 2.8 ± 0.1% in the test with C. albicans ATCC 10231 (7.8 μg∙mL^−1, 48 h); 3.9 ± 0.9% with C. albicans ATCC 10231 (15.6 μg∙mL^−1, 48 h); 10.1 ± 0.9% with C. albicans ATCC 10231 (62.5 μg∙mL^−1, 48 h); 18.8 ± 0.4% with C. albicans ATCC 10231 (125 μg∙mL^−1, 48 h); 35.0 ± 0.8% with C. albicans ATCC 10231 (250 μg∙mL^−1, 48 h). For the same compound, the “Inhibition percentage against C. albicans ATCC 10231” value in the test with C. albicans ATCC 10231 (31. μg∙mL^−1, 48 h) is recorded as 5.1 ± 1.3%. Besides, the “MIC50 (minimum concentration to inhibit 50% of fungal growth), C. albicans” value with C. albicans ATCC 10231 is above 250 µg/mL.
As for `COC(=O)C12CCCC(C)(C)C1CCc1cc(C(C)C)c(OC(=O)CCCc3cn(Cc4ccccc4)nn3)c(OC(=O)CCCc3cn(Cc4ccccc4)nn3)c12` (stereo not drawn) [Compound 12, Methyl(11,12-O-(4-(1-benzyl-1H-1,2,3-triazol-4-yl)-butanoyloxy)-abieta-8,11,13-triene)-20-oate], the “Inhibition percentage against C. neoformans ATCC 32264” value in the test on C. neoformans ATCC 32264 (3.9 μg∙mL^−1, 48 h) is recorded as 0.0%; with C. neoformans ATCC 32264 (7.8 μg∙mL^−1, 48 h), 0.0%; with C. neoformans ATCC 32264 (15.6 μg∙mL^−1, 48 h), 7.7 ± 1.6%; with C. neoformans ATCC 32264 (31.2 μg∙mL^−1, 48 h), 9.6 ± 0.8%; in the test with C. neoformans ATCC 32264 (62.5 μg∙mL^−1, 48 h), 17.3 ± 0.2%; in the test with C. neoformans ATCC 32264 (125 μg∙mL^−1, 48 h) it was 67.5 ± 0.7%. The “Inhibition percentage against C. neoformans ATCC 32264” value in the test on C. neoformans ATCC 32264 (250 μg∙mL^−1, 48 h) is reported as 63.1 ± 2.1%. Besides, the “MIC50 (minimum concentration to inhibit 50% of fungal growth), C. neoformans” value against C. neoformans ATCC 32264 came to 125 µg/mL. The “Inhibition percentage against C. albicans ATCC 10231” value worked out at 3.4 ± 0.3% in the test with C. albicans ATCC 10231 (3.9 μg∙mL^−1, 48 h); 3.6 ± 0.4% with C. albicans ATCC 10231 (7.8 μg∙mL^−1, 48 h); 5.6 ± 1.9% with C. albicans ATCC 10231 (15.6 μg∙mL^−1, 48 h); 14.9 ± 1.1% in the test on C. albicans ATCC 10231 (62.5 μg∙mL^−1, 48 h); 27.9 ± 0.1% with C. albicans ATCC 10231 (125 μg∙mL^−1, 48 h); 50.0 ± 5.0% with C. albicans ATCC 10231 (250 μg∙mL^−1, 48 h). The “Inhibition percentage against C. albicans ATCC 10231” value with C. albicans ATCC 10231 (31. μg∙mL^−1, 48 h) came out at 9.3 ± 2.6%. Moreover, in the test with C. albicans ATCC 10231, the “MIC50 (minimum concentration to inhibit 50% of fungal growth), C. albicans” value came to 250 µg/mL.
With `COC(=O)C12CCCC(C)(C)C1CCc1cc(C(C)C)c(OC(=O)CCc3cn(Cc4ccc(Br)cc4)nn3)c(OC(=O)CCc3cn(Cc4ccc(Br)cc4)nn3)c12` (stereo not drawn) [Compound 13, Methyl(11,12-O-(3-(1-(4-bromobenzyl)-1H-1,2,3-triazol-4-yl)-propanoyloxy)-abieta-8,11,13-triene)-20-oate], the “Inhibition percentage against C. neoformans ATCC 32264” value with C. neoformans ATCC 32264 (3.9 μg∙mL^−1, 48 h) is on record as 5.8 ± 0.6%; with C. neoformans ATCC 32264 (7.8 μg∙mL^−1, 48 h) it was 10.0 ± 1.0%; in the test on C. neoformans ATCC 32264 (15.6 μg∙mL^−1, 48 h), 13.3 ± 0.3%; in the test on C. neoformans ATCC 32264 (31.2 μg∙mL^−1, 48 h), 13.7 ± 0.6%; in the test with C. neoformans ATCC 32264 (62.5 μg∙mL^−1, 48 h), 16.3 ± 1.1%; with C. neoformans ATCC 32264 (125 μg∙mL^−1, 48 h) it was 16.8 ± 1.8%. Further, the “Inhibition percentage against C. neoformans ATCC 32264” value in the test on C. neoformans ATCC 32264 (250 μg∙mL^−1, 48 h) stood at 25.7 ± 0.5%. In addition, the “MIC50 (minimum concentration to inhibit 50% of fungal growth), C. neoformans” value in the test on C. neoformans ATCC 32264 is above 250 µg/mL. In addition, the “Inhibition percentage against C. albicans ATCC 10231” value with C. albicans ATCC 10231 (3.9 μg∙mL^−1, 48 h) was 0.0%; in the test with C. albicans ATCC 10231 (7.8 μg∙mL^−1, 48 h), 0.6 ± 0.1%; in the test with C. albicans ATCC 10231 (15.6 μg∙mL^−1, 48 h), 1.3 ± 0.3%; in the test with C. albicans ATCC 10231 (62.5 μg∙mL^−1, 48 h) it was 6.7 ± 0.1%; in the test with C. albicans ATCC 10231 (125 μg∙mL^−1, 48 h), 10.7 ± 0.3%; in the test on C. albicans ATCC 10231 (250 μg∙mL^−1, 48 h), 17.6 ± 0.2%. Besides, the “Inhibition percentage against C. albicans ATCC 10231” value with C. albicans ATCC 10231 (31. μg∙mL^−1, 48 h) amounted to 4.3 ± 0.4%. In addition, the “MIC50 (minimum concentration to inhibit 50% of fungal growth), C. albicans” value in the test with C. albicans ATCC 10231 is above 250 µg/mL.
